The text below walks through data of US9650369B2, “Anti-migration and anti-invasion thiazole analogs for treatment of cellular proliferative disease” (XAVIER UNIVERSITY OF LOUISIANA, priority 2012, dated 2017).

Each structure is given as a SMILES string.

Type in all cases: cell-based
Data set [1] has as its system MDA-MB-231 breast cancer cells. The data set can be described thus: clonogenic assay (colony formation), MDA-MB-231. Particulars: Homo sapiens, 336 h; MDA-MB-231, 10 μM analogs, 14 days; read-out: Effect on cell proliferation (colony formation) (% of vehicle control). The protocol:
To determine if these analogs have anti-migration and anti-invasion activities in different cancer cell lines, transwell migration assays were performed using MDA-MB-231 breast cancer cells (FIG. 3) and HeLa cells (FIG. 5) for all synthetic analogs. […] Next, clonogenic assays were performed on the breast cancer cells treated with the compounds to rule out any indirect effect on cell migration due to cytotoxicity (FIG. 4). MDA-MB-231 cells were allowed to grow for 14 days in six-well plates in the presence or absence of the synthetic compounds at 10 μM.
To rule out any indirect effect on cell migration due to cytotoxicity, clonogenic assays were performed on the breast cancer cells treated with the compounds. MDA-MB-231 cells were allowed to grow for 14 days in six-well plates in the presence or absence of the synthetic compounds at 10 μM. […] For example, analog 3g blocked both cell migration (81.4%) and colony formation (42.7%). For these analogs cytotoxity may have partially contributed to their overall anti-migration effect. The cell toxicity data for all analogs are listed in Table 1 along with anti-migration data for comparison.

A short description of data set [2]: cytotoxicity of additional thiazole compounds (Table 3). The following applies: cell line not given. The text has this: (§1) The additional thiazole compounds were synthesized and tested for antimigration efficacy and cytotoxicity, with results shown in TABLE 3.
The nature of data set [3]: antimigration efficacy of additional thiazole compounds (Table 3). The following applies: cell line not given; read-out: IC50 (anti-migration).
Text: as §1

Consider `Nc1nc(-c2ccccc2)cs1` [Compound 2a, 2-Amino-4-phenylthiazole], for which the activity at 10 µM in data set [1] came to 104%.
The same measure, in the same setting: under `O=C(Nc1nc(-c2ccccc2)cs1)c1ccco1` [Compound 3b, N-(4-Phenylthiazol-2-yl)furan-2-carboxamide] stands 98.8%.
For the compound `O=C(Nc1nc(-c2ccccc2)cs1)c1ccc(Cl)cc1` [Compound 3c, 4-Chloro-N-(4-phenylthiazol-2-yl)benzamide], the activity at 10 µM in data set [1] was found to be 95%.
The same measure, in the same setting: under `O=C(Nc1nc(-c2ccccc2)cs1)c1ccc(Br)cc1` [Compound 3d, 4-Bromo-N-(4-phenylthiazol-2-yl)benzamide] stands 98.6%.
Same read-out and setting: under `COc1cc(C(=O)Nc2nc(-c3ccccc3)cs2)cc(OC)c1OC` [Compound 3e, 3,4,5-Trimethoxy-N-(4-phenylthiazol-2-yl)benzamide] stands 80.9%; under `Cc1ccc(-c2csc(NC(=O)c3cccs3)n2)c(C)c1` [Compound 3f, N-(4-(2,4-Dimethylphenyl)thiazol-2-yl)thiophene-2-carboxamide], 67.5%.
On the same count and under the same terms, next, `O=C(Nc1nc(-c2ccccc2)cs1)c1cccnc1` [Compound 3h, N-(4-Phenylthiazol-2-yl)nicotinamide]: 103%; `O=C(Nc1nc(-c2ccccc2)cs1)C1CCCC1` [Compound 3k, N-(4-Phenylthiazol-2-yl)cyclopentanecarboxamide]: 99.8%.
Turning to `O=C(Nc1nc(-c2ccccc2)cs1)C1CCCCC1` [Compound 3l, N-(4-Phenylthiazol-2-yl)cyclohexanecarboxamide], the activity at 10 µM in data set [1] turned out to be 103%.
Still for that read-out and setting: next, `CCCCCC(=O)Nc1nc(-c2ccccc2)cs1` [Compound 3m, N-(4-Phenylthiazol-2-yl)hexanamide]: 90.7%; `CN(C(=O)c1ccc(Br)cc1)c1nc(-c2ccccc2)cs1` [Compound 4a, 4-Bromo-N-methyl-N-(4-phenylthiazol-2-yl)benzamide]: 108%.
Consider `Cc1ccc(-c2csc(N(C)C(=O)c3cccs3)n2)c(C)c1` [Compound 4b, N-(4-(2,4-dimethylphenyl)thiazol-2-yl)-N-methylthiophene-2-carboxamide], for which the activity at 10 µM in data set [1] was found to be 97.7%.
The same measure, in the same setting: under `COc1ccc(C(=O)N(C)c2nc(-c3ccccc3)cs2)cc1OC` [Compound 4c, 3,4-Dimethoxy-N-methyl-N-(4-phenylthiazol-2-yl)benzamide] stands 97.1%.
For `Cn1c(-c2cccc(Cl)c2)csc1=NC(=O)c1ccccc1` [Compound 15e, N-(4-(3-Chlorophenyl)-3-methylthiazol-2(3H)-ylidene)benzamide], the “Cytotoxicity (Survival at 1 μM)” value in data set [2] turned out to be 35.2%. In addition, in data set [3], the IC50 amounted to 367 nM.
Turning to `Cn1c(-c2cc(C(F)(F)F)cc(C(F)(F)F)c2)csc1=NC(=O)c1ccccc1` [Compound 15f, N-(4-(3,5-Bis(trifluoromethyl)phenyl)-3-methylthiazol-2(3H)-ylidene)benzamide], the “Cytotoxicity (Survival at 1 μM)” value in data set [2] came out at 79.8%. In addition, the IC50 in data set [3] was determined as 96 nM.
Taken in the same sequence, the figures for `COc1cc(-c2cs/c(=N/C(=O)c3ccccc3)n2C)cc(OC)c1OC` [Compound 15g, N-(4-(3,4,5-Trimethoxyphenyl)-3-methylthiazol-2(3H)-yliene)-benzamide] were 88.4% and 1070 nM.
Taken in the same sequence, the figures for `Cc1sc(=NC(=O)c2ccccc2)n(C)c1-c1ccccc1` [Compound 15h, N-(3,5-Dimethyl-4-phenylthiazol-2(3H)-ylidene)benzamide] were 68.4% and 197 nM.
For `Cc1sc(=NC(=O)c2ccccc2)n(C)c1-c1ccc(F)cc1` [Compound 15i, N-(4-(4-Fluorophenyl)-3,5-dimethylthiazol-2(3H)-ylidene)benzamide], in that order: 83.8% and 847 nM.
In the case of `Cc1ccc(-c2cn(C)/c(=N\C(=O)c3ccccc3)s2)cc1` [Compound 15j, N-(3-Methyl-5-(p-toyl)thiazol-2(3H)-ylidene)benzamide], the “Cytotoxicity (Survival at 1 μM)” value in data set [2] turned out to be 112.6%. Further, in data set [3], the IC50 is > 25000 nM.
Consider `COc1ccc(C(=O)N=c2scc(-c3cc(OC)c(OC)c(OC)c3)n2C)cc1` [Compound 15k, 4-Methoxy-N-(3-methyl-4-(3,4,5-trimethoxyphenyl)thiazol-2(3H)-ylidene)benzamide], for which, in data set [2], the “Cytotoxicity (Survival at 1 μM)” value is 105.6%. In addition, in data set [3], the IC50 was found to be 8000 nM.
Taken in the same sequence, the figures for `COc1cc(-c2csc(=NC(=O)c3ccc(Cl)cc3)n2C)cc(OC)c1OC` [Compound 15l, 4-Chloro-N-(3-methyl-4-(3,4,5-trimethoxyphenyl)thiazol-2(3H)-ylidene)benzamide] were 77.6% and 758 nM.
Taken in the same sequence, the figures for `COc1cccc(C(=O)N=c2scc(-c3cc(OC)c(OC)c(OC)c3)n2C)c1` [Compound 15m, 3-Methoxy-N-(3-methyl-4-(3,4,5-trimethoxyphenyl)thiazol-2(3H)-ylidene)benzamide] were 103.5% and > 50000 nM.
Taken in the same sequence, the figures for `Cn1c(C2CC2)csc1=NC(=O)c1ccccc1` [Compound 15n, N-(4-Cyclopropyl-3-methylthiazol-2(3H)-ylidene)benzamide] were 90.7% and 104 nM.
With `COc1cc(C(=O)/N=c2/scc(-c3cc(OC)c(OC)c(OC)c3)n2C)cc(OC)c1OC` [Compound 15o, 3,4,5-Trimethoxy-N-(3-methyl-4-(3,4,5-trimethoxyphenyl)thiazol-2(3H)-ylidene) benzamide], in data set [2], the “Cytotoxicity (Survival at 1 μM)” value is 81.5%. Further, in data set [3], the IC50 was 1960 nM.
With `CN(C(=O)c1ccccc1)c1nc(-c2ccccc2Cl)cs1` [Compound 16a, N-(4-(2-Chlorophenyl)thiazol-2-yl)-N-methylbenzamide], the “Cytotoxicity (Survival at 1 μM)” value in data set [2] worked out at 88.9%. Also, in data set [3], the IC50 was determined as 41.6 nM.
Taken in the same sequence, the figures for `CN(C(=O)c1ccccc1)c1nc(-c2cccc(Br)c2)cs1` [Compound 16b, N-(4-(3-Bromophenyl)thiazol-2-yl)-N-methylbenzamide] were 104.4% and 437 nM.
Taken in the same sequence, the figures for `CN(C(=O)c1ccccc1)c1nc(-c2ccc(Br)cc2)cs1` [Compound 16c, N-(4-(4-Bromophenyl)thiazol-2-yl)-N-methylbenzamide] were 65.4% and 317 nM.
Taken in the same sequence, the figures for `COc1cc(-c2csc(N(C)C(=O)c3ccccc3)n2)cc(OC)c1OC` [Compound 16d, N-Methyl-N-(4-(3,4,5-trimethoxyphenyl)thiazol-2-yl)benzamide] were 96.4% and 10000 nM.
Take `Cc1sc(N(C)C(=O)c2ccccc2)nc1-c1ccc(F)cc1` [Compound 16e, N-(4-(4-Fluorophenyl)-5-methylthiazol-2-yl)-N-methylbenzamide]: the “Cytotoxicity (Survival at 1 μM)” value in data set [2] came to 107.6%. Also, in data set [3], the IC50 is 1620 nM.
Taken in the same sequence, the figures for `Cc1ccc(-c2cnc(N(C)C(=O)c3ccccc3)s2)cc1` [Compound 16f, N-Methyl-N-(5-(p-tolyl)thiazol-2-yl)benzamide] were 59.3% and 1090 nM.
Taken in the same sequence, the figures for `COc1ccc(C(=O)N(C)c2nc(-c3cc(OC)c(OC)c(OC)c3)cs2)cc1` [Compound 16g, 4-Methoxy-N-methyl-N-(4-(3,4,5-trimethoxyphenyl)thiazol-2-yl)benzamide] were 100.0% and 312 nM.
Taken in the same sequence, the figures for `COc1ccc(C(=O)N(C)c2nc(-c3cc(OC)c(OC)c(OC)c3)cs2)cc1OC` [Compound 16h, 3,4-Dimethoxy-N-methyl-N-(4-(3,4,5-trimethoxyphenyl)thiazol-2-yl)benzamide] were 101.9% and > 25000 nM.
With `COc1ccc(C(=O)N(C)c2nc(-c3cc(OC)c(OC)c(OC)c3)cs2)c(OC)c1` [Compound 16i, 2,4-Dimethoxy-N-methyl-N-(4-(3,4,5-trimethoxyphenyl)thiazol-2-yl)benzamide], the “Cytotoxicity (Survival at 1 μM)” value in data set [2] stood at 118.5%. Also, the IC50 in data set [3] is 5040 nM.
Regarding `COc1cc(C(=O)N(C)c2nc(-c3cc(OC)c(OC)c(OC)c3)cs2)cc(OC)c1OC` [Compound 16j, 3,4,5-Trimethoxy-N-methyl-N-(4-(3,4,5-trimethoxyphenyl)thiazol-2-yl)benzamide], in data set [2], the “Cytotoxicity (Survival at 1 μM)” value is reported as 114.8%. Also, the IC50 in data set [3] came out at 470 nM.
For `COc1cc(-c2csc(N(C)C(=O)c3cccc(OC)c3OC)n2)cc(OC)c1OC` [Compound 16k, 2,3-Dimethoxy-N-methyl-N-(4-(3,4,5-trimethoxyphenyl)thiazol-2-yl)benzamide], in that order: 117.6% and 108 nM.
In the case of `COc1ccccc1C(=O)N(C)c1nc(-c2cc(OC)c(OC)c(OC)c2)cs1` [Compound 16l, 2-Methoxy-N-methyl-N-(4-(3,4,5-trimethoxyphenyl)thiazol-2-yl)benzamide], the “Cytotoxicity (Survival at 1 μM)” value in data set [2] amounted to 109.3%. In data set [3], the IC50 was > 25000 nM.
For `COc1cccc(C(=O)N(C)c2nc(-c3cc(OC)c(OC)c(OC)c3)cs2)c1` [Compound 16m, 3-Methoxy-N-methyl-N-(4-(3,4,5-trimethoxyphenyl)thiazol-2-yl)benzamide], in that order: 88.9% and 646 nM.
